How the values were obtained:
bed bugs [1] = test: Example 2: bed bug mortality after exposure to solutions of minimum risk (25(b)) pesticides via artificial membrane feeding system; type: in vivo; details: for efficacy against bed bugs: exposed to lower concentrations of the solutions; for level of efficacy against bed bugs relative to the other solutions: within 120 hours of exposure
Method: To determine whether consumption of ingredients listed under section 25(b) of the Federal Insecticide, Fungicide, and Rodenticide Act kills bed bugs, several mixtures of salt, citric acid, potassium sorbate, sodium lauryl sulfate (SLS), castor oil, sesame oil, cinnamon oil, garlic oil, citronella oil, lemongrass oil, peppermint oil, cedar oil, clove oil, rosemary oil, thyme oil, geranium oil, geraniol, and flaxseed oil were made. Oil based solutions were dissolved into 2% sodium lauryl sulfate (“SLS”) and water mixtures. Remaining ingredients were dissolved in water. Concentrations of 1%, 5%, and 50% of each solution were made. Control solutions consisted of either human blood or water depending on the test solutions in each experiment. Groups of twenty bed bugs were offered each solution via the artificial membrane feeding system described above for 60 minutes. […] Post-exposure mortality was recorded at 24 hours and 120 hours after exposure to the active solution.

bed bugs [2] = test: Example 3: feeding and mortality of bed bugs offered varying concentrations of sodium chloride in water; type: in vivo
Description: To determine optimum concentrations of sodium chloride solutions (for both feeding and mortality), bed bugs were offered the following concentrations sodium chloride diluted in water on a weight percent basis: 0, 0.05, 0.25, 0.5%, 1%, 2%, 3%, 4%, 5%, 6%, 7%, 8%, 9%, 10%, 12%, 14%, 16%, 18%, 20%, 25%, 30%, 35%, 40%, 50%, 60%, 70%, 80%, 90%, and 100%.

bed bugs [3] = system: bed bugs
Method: For the following Examples an artificial membrane feeding station was prepared and used. […] The Parafilm™ was stretched to <5.0 mils thick. The liquid bait identified in the various Examples below was placed in the sealed container.
Each solution was offered to groups of 20 bed bugs via the artificial feeding stations described above. After approximately 60 minutes, the containers of 20 bed bugs were removed from the feeding station and the number that fed to completion was recorded. Post-exposure mortality was recorded at 4 hours, 24 hours and/or 48 hours after exposure to the active solution.

bed bugs [4] = test: Example 1: post-consumption mortality of bed bugs fed on solutions via artificial membrane feeding system; type: in vivo; details: solution of 0.05 grams boric acid and 4.95 milliliters phosphate buffer pH 7.4; within 24 hours
Description: Boric acid is an insecticidal dust that causes death upon consumption by most insects with chewing mouthparts. Bed bugs have blood-feeding, piercing/sucking mouthparts that limit their ability to pick up and consume the insecticidal dust in its powder form. To determine whether consumption of boric acid kills bed bugs, several mixtures of boric acid and phosphate buffer, DUPONT™ ADVION™ fire ant bait including indoxacarb and phosphate buffer, and just phosphate buffer solutions were made. […] Multiple groups of ten bed bugs fed on the solutions via artificial membrane feeding systems as described above, and post-consumption mortality was recorded. […]

With `[Cl-].[Na+]` [sodium chloride] the “efficacy against bed bugs” value (bed bugs [1]) was “some efficacy”, the “level of efficacy against bed bugs relative to the other solutions” value (bed bugs [1]) was “highest observed levels of efficacy” and the mortality (bed bugs [2]; all sodium chloride solutions up to 70% wt. sodium chloride) was “some level of mortality”. For the same compound, the “sodium chloride concentration up to which death was recorded” value (bed bugs [2]; just from bed bugs tasting the solutions) was “up to 70 weight percent”, the “sodium chloride concentration up to which bed bugs feed to completion or engorge” value (bed bugs [2]; sodium chloride in water, offered about 60 minutes) was “up to 5%” and the “highest levels of mortality” value (bed bugs [2]; solutions containing 6-12% wt. sodium chloride, within 48 hours) was “up to 70%”. For the same compound, the “sodium chloride concentration up to which bed bugs fully engorge themselves” value (bed bugs [2]; solutions of sodium chloride and water) was “up to 5 weight percent”.
With `CCCCCCCCCCCCOS(=O)(=O)[O-].[Na+]` [SLS, sodium lauryl sulfate] the “efficacy against bed bugs” value (bed bugs [1]) was “some efficacy” and the “level of efficacy against bed bugs relative to the other solutions” value (bed bugs [1]) was “highest observed levels of efficacy”.
`OB(O)O` [boric acid] was tested, and the increase in mortality (bed bugs [3]; 5% boric acid added to the sodium chloride solution) was 25-60%, the “effect on mortality compared to sodium chloride base solutions without boric acid” value (bed bugs [3]; addition of 5% boric acid) was “significantly enhanced mortality” and the “efficacy on bed bugs that consumed the solution” value (bed bugs [4]) was 100%.
`CC(C)=CCC/C(C)=C/CO` [geraniol oil, geraniol] was tested, and the “efficacy against bed bugs” value (bed bugs [1]) was “some efficacy”.
`C/C=C/C=C/C(=O)[O-].[K+]` [potassium sorbate] showed an efficacy (bed bugs [1]; within 120 hours, bed bugs that consumed the solutions, concentrations of 1%, 5%, 50% made) of 0%.
With `O=C(O)CC(O)(CC(=O)O)C(=O)O` [citric acid] the “efficacy against bed bugs” value (bed bugs [1]) was “some efficacy” and the “level of efficacy against bed bugs relative to the other solutions” value (bed bugs [1]) was “highest observed levels of efficacy”.
